According to patent publication US6380182B1, “Methods and compositions controlling biofouling using sulfamic acids” (priority 1997, dated 2002):
“And” between values parts separate entries of the source, which are not always exact repeats. Identical values can stand only once.

Tests used:
Assay type in all cases: cell-based
E. Aerogenes = assay: Minimum inhibitory concentration, 18 hour Basal Salts test; details: for MIC pH8: pH 8; for MIC pH6: pH 6
[1] = tested on: Bacteria of the genera Bacillus, Flavobacterium, and Pseudomonas; assay: Bioreactor bacterial adhesion test, quantitative inhibition of bacterial adhesion (IBA) by crystal violet absorbance at 586 nm; details: 100 ppm, acetone solvent, 168 h incubation at 26-28 C, 50% or greater considered effective
Protocol: The test method, construction of bioreactors, bacterial growth medium, preparation of bacterial inocula, and biofilm production/chemical testing is the same as outlined in EXAMPLE 3. After 168 h (1 week) of incubation at 26-28 C, the slides were removed from the bioreactors and were positioned vertically to […] using a staining procedure. The slides were briefly flamed in order to fix the cells to the surface, and then transferred for one minute to a container of Gram Crystal Violet (DIFCO Laboratories, Detroit, Mich.). The slides were gently rinsed under running tap water, carefully blotted, and again allowed to air dry overnight The degree of bacterial adhesion was then determined by a quantitative method of evaluation. The pair of glass slides and the pair of stainless steel slides corresponding to each treatment were placed each in Petri plate with 10 mL ethanol (technical) to remove the crystal violet staining the cells attached to the slides. A 1 mL aliquot of the crystal violet ethanol solution obtained in each Petri plate was transferred each to a test tube with 9 mL of deionized sterile water ( 1/10 dilution). The blank for calibration of the optical instrument used for the evaluation was a solution of 1 mL of ethanol in 9 mL of deionized sterile water. The absorbance (ABS) of each solution was determined using a spectrophotometer (Spectronic 21, Bausch and Lomb) at a wavelength of 586 nm. The inhibition of bacterial adhesion (IBA) was calculated: IBA=100 (ABS control−ABS treatment)\ABS control 90 or >% IBA=essentially no bacterial adhesion 89-70% IBA=scant 69-50% IBA=slight 30% IBA=moderate 29-<29% IBA=moderate Compounds which receive 50% IBA or greater were considered effective to prevent the adhesion of bacteria to the submerged slides.

[2] = tested on: Bacteria of the genera Bacillus, Flavobacterium, and Pseudomonas; assay: Bioreactor bacterial adhesion test, visual biofilm scoring of crystal violet stained slides; set-up: key: 0=essentially none; 1=scant; 2=slight; 3=moderate; 4=heavy; details: Glass slides; 100 ppm; acetone solvent; 3 days; average of four replicate slides; 0-2 considered effective
Description: Test Method: The following method effectively defines the ability of a chemical compound to inhibit bacterial adhesion, or attack the formation of existing attached microorganisms, on various types of surfaces. As an overview, bioreactors were constructed in which approximately 1 in.×3 in. slides (glass or stainless steel) were fixed to the edge of the bioreactor. The lower ends (approx. 2 in.) of the slides dipped into a bacterial growth medium (pH 7) within the bioreactor which contained a known concentration of the test chemical. Following inoculation with known bacterial species, the test solutions were stirred continuously for 3 days. Unless otherwise indicated in the results below, the medium within the bioreactor was turbid by the end of three days. […] A staining procedure was then used on the slides in order to determine the amount of bacteria attached to the surfaces of the slides.
Construction of Bioreactors: The bioreactors comprised a 400 ml glass beaker over which a lid (cover from a standard 9 cm diameter glass petri dish) was placed. With the lid removed, slides of the material of choice were taped at one end with masking tape and suspended inside the bioreactor from the top edge of the beaker. This allows the slides to be submerged within the test medium. Typically, four slides (replicates) were uniformly spaced around the bioreactor. The score presented below are the average of the four replicates. A magnetic stirring bar was placed in the bottom of the unit, the lid positioned, and the bioreactor autoclaved. Two different types of material were used as slides, stainless steel as a metal and glass as a hydrophillic surface.
Bacterial Growth Medium: The liquid medium utilized in the bioreactors was described previously by Delaquis, et al., “Detachment Of Pseudomonas fluorescens From Biofilms On Glass Surfaces In Response To Nutrient Stress”, Microbial Ecology 18:199-210, 1989. The composition of the medium was:
The medium was autoclaved and then allowed to cool. If a sediment formed in the autoclaved medium, the medium was resuspended by shaking before use.
Preparation of Bacterial Inocula: Bacteria of the genera Bacillus, Flavobacterium, and Pseudomonas were isolated from a paper mill slime deposit and maintained in continuous culture. The test organisms were separately streaked onto plate count agar and incubated at 30° C. for 24 hours. With a sterile cotton swab, portions of the colonies were removed and suspended in sterile water. […]
Biofilm Production/Chemical Testing: To four separate bioreactors was added 200 ml of the sterile medium prepared above. Chemicals to be evaluated as biodispersants were first prepared as a stock solution (40 mg/2 ml) using either water or a 9:1 acetone: methanol mixture (ac/MeOH) as a solvent. […]

Row | Compound | MIC pH8 (E. Aerogenes) | Score (% IBA) 168 h Incub. ([1]; Glass slides) | Score (% IBA) 168 h Incub. ([1]; SS (stainless steel) slides) | Score (biofilm score) [2] | MIC pH6 (E. Aerogenes)
1 | CCCCNS(=O)(=O)O [a, butyl sulfamic acid] | >500 | 0 % IBA | 66 % IBA | – | –
2 | CCCCCNS(=O)(=O)O [b, amyl sulfamic acid] | >500 | 65 % IBA | 14 % IBA | – | –
3 | CCCCCCCCNS(=O)(=O)O [c, octyl sulfamic acid] | >100 | 41 % IBA | 54 % IBA | – | –
4 | CCCCCCCCN(CCCCCCCC)S(=O)(=O)O [d, dioctyl sulfamic acid] | >100 | – | – | 3 | –
5 | CCCCCCCCCCCCNS(=O)(=O)O [e, dodecyl sulfamic acid] | – | 82 % IBA and 72 % IBA | 78 % IBA and 70 % IBA | 3.8 | –
6 | CCCCCCCCCCCCN(CCCCCCCCCCCC)S(=O)(=O)O [f, didodecyl sulfamic acid] | – | 27 % IBA | 15 % IBA | 2.00 | –
7 | CCCCCCCCCCCCCCCCCCNS(=O)(=O)O [g, octadecyl sulfamic acid] | >500 | – | – | – | –
8 | O=S(=O)(O)N(C1CCCCC1)C1CCCCC1 [h, dicyclohexyl sulfamic acid] | >100 | 44 % IBA | 57 % IBA | – | >500
9 | O=S(=O)(O)NN1CCOCC1 [i, morpholino sulfamic acid] | >100 | 47 % IBA | 39 % IBA | – | >500
10 | piperidinyl sulfamic acid [j] | >100 | 40 % IBA | 68 % IBA | 2.5 | >100
